Patent publication US9468209B2, “Method for eradicating weeds with derivatives of 3-acetyl-5-sec-butyl-4-hydroxy-3-pyrrolin-2-one” (priority 2012, dated 2016)

Assays:
Assay type in all cases: in vivo
Crofton weed = test: Needle puncture pathogenic test on slightly wounded leaf of Crofton weed; conditions: Crofton weed leaf, 50 μg/mL, 25° C., natural light
In short: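 Compounds in a little methanol were diluted with water to 50 μg/mL (5–100 μg/g in a range test) and applied by needle to slightly wounded Crofton weed leaves. Leaves were kept at 25 °C under natural light with six or more replicates, against methanol/water controls. Lesion spot diameter was measured after 24 h.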

Rumex japonicus = test: Leaf piece damage test; set-up: key: 4: The leaf completely dead; 3: Two third of the leaf withered; 2: One half of the leaf withered; 1: Only edge of the leaf withered; 0: Not damage at all; conditions: 50 μg/mL, 4 days
Method: (§1) Compounds 7, 14, 15, 16, 40, 45, 48 and 53 were dissolved individually in small amount of methanol, and diluted with distilled water to concentration of 50 μg/mL. Methanol water solution and pure water were used as control. A piece of 5 mm leaf was taken from the second leaf of weed sample and was treated with the solution three times. 5 pieces of the leaf were prepared for each treatment. The damage data were collected 4 days later. The measurement of damage level is described in the Table 9.
(§2) The measurement of the plant damage was calculated by the formula: Damage Index=Σ(damage level×number of plants)×100/4/number of plants in each treatment.

Polygonum perfoliatum = test: Leaf piece damage test; set-up: key: 4: The leaf completely dead; 3: Two third of the leaf withered; 2: One half of the leaf withered; 1: Only edge of the leaf withered; 0: Not damage at all; conditions: 50 μg/mL, 4 days
Method: as §1, §2

Ambrosia artemisiifolia = test: Leaf piece damage test; set-up: key: 4: The leaf completely dead; 3: Two third of the leaf withered; 2: One half of the leaf withered; 1: Only edge of the leaf withered; 0: Not damage at all; conditions: 50 μg/mL, 4 days
Method: as §1, §2

Pharbitis nil = test: Leaf piece damage test; set-up: key: 4: The leaf completely dead; 3: Two third of the leaf withered; 2: One half of the leaf withered; 1: Only edge of the leaf withered; 0: Not damage at all; conditions: 50 μg/mL, 4 days
Method: as §1, §2

Dichondra repens = test: Leaf piece damage test; set-up: key: 4: The leaf completely dead; 3: Two third of the leaf withered; 2: One half of the leaf withered; 1: Only edge of the leaf withered; 0: Not damage at all; conditions: 50 μg/mL, 4 days
Method: as §1, §2

Big Bristlegass = test: Leaf piece damage test; set-up: key: 4: The leaf completely dead; 3: Two third of the leaf withered; 2: One half of the leaf withered; 1: Only edge of the leaf withered; 0: Not damage at all; conditions: 50 μg/mL, 4 days
Method: as §1, §2

Conyza canademsis = test: Leaf piece damage test; set-up: key: 4: The leaf completely dead; 3: Two third of the leaf withered; 2: One half of the leaf withered; 1: Only edge of the leaf withered; 0: Not damage at all; conditions: 50 μg/mL, 4 days
Method: as §1, §2

[1] = system: Redroot pigweed (Amaramthus retroflexus); test: Leaf piece damage test; set-up: key: 4: The leaf completely dead; 3: Two third of the leaf withered; 2: One half of the leaf withered; 1: Only edge of the leaf withered; 0: Not damage at all; conditions: 50 μg/mL, 4 days
Method: as §1, §2

Cayratia japonica = test: Leaf piece damage test; set-up: key: 4: The leaf completely dead; 3: Two third of the leaf withered; 2: One half of the leaf withered; 1: Only edge of the leaf withered; 0: Not damage at all; conditions: 50 μg/mL, 4 days
Method: as §1, §2

Humulus scandens = test: Leaf piece damage test; set-up: key: 4: The leaf completely dead; 3: Two third of the leaf withered; 2: One half of the leaf withered; 1: Only edge of the leaf withered; 0: Not damage at all; conditions: 50 μg/mL, 4 days
Method: as §1, §2

Common polypogon = test: Leaf piece damage test; set-up: key: 4: The leaf completely dead; 3: Two third of the leaf withered; 2: One half of the leaf withered; 1: Only edge of the leaf withered; 0: Not damage at all; conditions: 50 μg/mL, 4 days
Method: as §1, §2

Oxalis corniculata = test: Leaf piece damage test; set-up: key: 4: The leaf completely dead; 3: Two third of the leaf withered; 2: One half of the leaf withered; 1: Only edge of the leaf withered; 0: Not damage at all; conditions: 50 μg/mL, 4 days
Method: as §1, §2

Malvaceae = test: Leaf piece damage test; set-up: key: 4: The leaf completely dead; 3: Two third of the leaf withered; 2: One half of the leaf withered; 1: Only edge of the leaf withered; 0: Not damage at all; conditions: 50 μg/mL, 4 days
Method: as §1, §2

[2] = system: Barbyardgrass Echinochloa crusgalli; test: Leaf piece damage test; set-up: key: 4: The leaf completely dead; 3: Two third of the leaf withered; 2: One half of the leaf withered; 1: Only edge of the leaf withered; 0: Not damage at all; conditions: 50 μg/mL, 4 days
Method: as §1, §2

[3] = system: Green foxtail (Setaria viridis); test: Leaf piece damage test; set-up: key: 4: The leaf completely dead; 3: Two third of the leaf withered; 2: One half of the leaf withered; 1: Only edge of the leaf withered; 0: Not damage at all; conditions: 50 μg/mL, 4 days
Method: as §1, §2

[4] = system: Alligator weed (Alternanthera philoxeroides); test: Leaf piece damage test; set-up: key: 4: The leaf completely dead; 3: Two third of the leaf withered; 2: One half of the leaf withered; 1: Only edge of the leaf withered; 0: Not damage at all; conditions: 50 μg/mL, 4 days
Method: as §1, §2

## CCCCC1NC(=O)C(C(C)=O)=C1O (stereo not drawn) [Compound 14]
Crofton weed
  Time of Disease spot: 13.8 ± 0.54 h
  Average diameter of spot after 24 h: 6.37 ± 0.04 mm
Rumex japonicus
  Damage level: 1
Polygonum perfoliatum
  Damage level: 2
Ambrosia artemisiifolia
  Damage level: 3
Pharbitis nil
  Damage level: 2
Dichondra repens
  Damage level: 2
Big Bristlegass
  Damage level: 2
Conyza canademsis
  Damage level: 3
[1]
  Damage level: 2
Cayratia japonica
  Damage level: 2
Humulus scandens
  Damage level: 2
Common polypogon
  Damage level: 3
Oxalis corniculata
  Damage level: 4
Malvaceae
  Damage level: 2
[2]
  Damage level: 4
[3]
  Damage level: 3
[4]
  Damage level: 3

## CCCCCC1NC(=O)C(C(C)=O)=C1O (stereo not drawn) [Compound 15]
Crofton weed
  Time of Disease spot: 9.5 ± 1.26 h
  Average diameter of spot after 24 h: 9.61 ± 1.20 mm
Rumex japonicus
  Damage level: 2
Polygonum perfoliatum
  Damage level: 2
Ambrosia artemisiifolia
  Damage level: 2
Pharbitis nil
  Damage level: 3
Dichondra repens
  Damage level: 2
Big Bristlegass
  Damage level: 2
Conyza canademsis
  Damage level: 3
[1]
  Damage level: 2
Cayratia japonica
  Damage level: 2
Humulus scandens
  Damage level: 2
Common polypogon
  Damage level: 3
Oxalis corniculata
  Damage level: 3
Malvaceae
  Damage level: 2
[2]
  Damage level: 4
[3]
  Damage level: 4
[4]
  Damage level: 2

## CCCCCCC1NC(=O)C(C(C)=O)=C1O (stereo not drawn) [Compound 16]
Crofton weed
  Time of Disease spot: 13.80 ± 0.54 h
  Average diameter of spot after 24 h: 7.61 ± 0.11 mm
Rumex japonicus
  Damage level: 2
Polygonum perfoliatum
  Damage level: 3
Ambrosia artemisiifolia
  Damage level: 3
Pharbitis nil
  Damage level: 2
Dichondra repens
  Damage level: 3
Big Bristlegass
  Damage level: 3
Conyza canademsis
  Damage level: 3
[1]
  Damage level: 3
Cayratia japonica
  Damage level: 2
Humulus scandens
  Damage level: 3
Common polypogon
  Damage level: 3
Oxalis corniculata
  Damage level: 4
Malvaceae
  Damage level: 2
[2]
  Damage level: 4
[3]
  Damage level: 3
[4]
  Damage level: 3

## CCCC(Cl)C1NC(=O)C(C(C)=O)=C1O (stereo not drawn) [Compound 40]
Crofton weed
  Time of Disease spot: 11.93 ± 0.66 h
  Average diameter of spot after 24 h: 8.10 ± 0.90 mm
Rumex japonicus
  Damage level: 2
Polygonum perfoliatum
  Damage level: 3
Ambrosia artemisiifolia
  Damage level: 3
Pharbitis nil
  Damage level: 2
Dichondra repens
  Damage level: 3
Big Bristlegass
  Damage level: 3
Conyza canademsis
  Damage level: 3
[1]
  Damage level: 3
Cayratia japonica
  Damage level: 2
Humulus scandens
  Damage level: 3
Common polypogon
  Damage level: 3
Oxalis corniculata
  Damage level: 4
Malvaceae
  Damage level: 2
[2]
  Damage level: 4
[3]
  Damage level: 3
[4]
  Damage level: 3

## CCC(C)C1NC(=O)C(C(=O)CCF)=C1O (stereo not drawn) [Compound 44]
Crofton weed
  Time of Disease spot: 12.0 ± 1.33 h
  Average diameter of spot after 24 h: 4.07 ± 0.51 mm
Rumex japonicus
  Damage level: 3
Polygonum perfoliatum
  Damage level: 3
Ambrosia artemisiifolia
  Damage level: 4
Pharbitis nil
  Damage level: 3
Dichondra repens
  Damage level: 2
Big Bristlegass
  Damage level: 2
Conyza canademsis
  Damage level: 4
[1]
  Damage level: 2
Cayratia japonica
  Damage level: 3
Humulus scandens
  Damage level: 2
Common polypogon
  Damage level: 4
Oxalis corniculata
  Damage level: 4
Malvaceae
  Damage level: 2
[2]
  Damage level: 4
[3]
  Damage level: 4
[4]
  Damage level: 4

## CCC(C)C1NC(=O)C(C(=O)CCc2cc(Cl)cc(Cl)c2)=C1O (stereo not drawn) [Compound 48]
Crofton weed
  Time of Disease spot: 13.5 ± 2.77 h
  Average diameter of spot after 24 h: 4.33 ± 0.54 mm
Rumex japonicus
  Damage level: 2
Polygonum perfoliatum
  Damage level: 3
Ambrosia artemisiifolia
  Damage level: 3
Pharbitis nil
  Damage level: 3
Dichondra repens
  Damage level: 3
Big Bristlegass
  Damage level: 3
Conyza canademsis
  Damage level: 4
[1]
  Damage level: 2
Cayratia japonica
  Damage level: 3
Humulus scandens
  Damage level: 3
Common polypogon
  Damage level: 4
Oxalis corniculata
  Damage level: 4
Malvaceae
  Damage level: 2
[2]
  Damage level: 4
[3]
  Damage level: 4
[4]
  Damage level: 4

## CCCC(C#N)C1NC(=O)C(=C(C)O)C1=O (stereo not drawn) [Compound 53]
Crofton weed
  Time of Disease spot: 12.90 ± 0.27 h
  Average diameter of spot after 24 h: 7.334 ± 0.845 mm
Rumex japonicus
  Damage level: 3
Polygonum perfoliatum
  Damage level: 3
Ambrosia artemisiifolia
  Damage level: 3
Pharbitis nil
  Damage level: 3
Dichondra repens
  Damage level: 2
Big Bristlegass
  Damage level: 3
Conyza canademsis
  Damage level: 3
[1]
  Damage level: 3
Cayratia japonica
  Damage level: 3
Humulus scandens
  Damage level: 2
Common polypogon
  Damage level: 4
Oxalis corniculata
  Damage level: 4
Malvaceae
  Damage level: 3
[2]
  Damage level: 4
[3]
  Damage level: 3
[4]
  Damage level: 3
